Columns and labels:
[1] = system: dogs that had become resistant to furosemide; details: torasemide dose ten times lower (1/10) than reference furosemide dose; cited from earlier work
healthy dogs = assay: PK/PD studies of diuretic effect (urinary volume) after one-day and fourteen-day oral administration; assay type: in vivo; details: for Urinary volume on day 1 / Urinary volume on day 14: healthy dogs
Experimental: Two pharmacokinetics studies (PK/PD) in healthy dogs have been performed to investigate and model the pharmacodynamic effects of torasemide, furosemide and placebo after a one-day and fourteen-day oral administration of furosemide at the following doses: 1 and 4 mg/kg/12 hours, and of torasemide at the following doses: 0.2, 0.25, 0.30 and 0.50 mg/kg/day. • 1 and 4 mg/kg furosemide have been administered to five dogs on the basis of repeated oral administration twice daily for 14 days (corresponding to 2 and 8 mg/kg/day). • 0 (placebo), 0.2, 0.25, 0.30 and 0.50 mg/kg torasemide have been administered to five dogs on the basis of repeated oral administration daily for 14 days.

[2] = system: dog model having no clinical signs of heart failure; details: 0.2 mg/kg/day torasemide versus 2 mg/kg/day furosemide, seven days; cited from earlier work
[3] = torasemide 0.20 mg/kg/day oral once daily
[4] = torasemide 0.25 mg/kg/day oral once daily
[5] = torasemide 0.30 mg/kg/day oral once daily
[6] = torasemide 0.5 mg/kg/day oral once daily
[7] = furosemide 2 mg/kg/day (1 mg/kg/12 hours) oral
[8] = furosemide 8 mg/kg/day (4 mg/kg/12 hours) oral

## Cc1cccc(Nc2ccncc2S(=O)(=O)NC(=O)NC(C)C)c1 [Torasemide, N-[(isopropylamino)carbonyl]-4-[(3-methylphenyl)amino] pyridine-3-sulfonamide]
[1]
  Diuretic potency compared with reference dose of furosemide: as potent in producing a diuretic effect
Healthy dogs; 0.20 to 0.50 mg/kg/day of torasemide, day 1 and day 14
  Urinary volume compared with test control (placebo): > 220 mL
Healthy dogs; [3]
  Urinary volume on day 1: 455 mL
  Urinary volume on day 14: 561 mL
Healthy dogs; [4]
  Urinary volume on day 1: 500 mL
  Urinary volume on day 14: 696 mL
Healthy dogs; [5]
  Urinary volume on day 1: 659 mL
  Urinary volume on day 14: 816 mL
Healthy dogs; [6]
  Urinary volume on day 1: 700 mL
  Urinary volume on day 14: 1100 mL
[2]
  Diuretic potency compared with furosemide: as potent as furosemide
  Duration of diuretic effect compared with furosemide: longer diuretic effect

## NS(=O)(=O)c1cc(C(=O)O)c(NCc2ccco2)cc1Cl [Furosemide, furosemide]
Healthy dogs; [7]
  Urinary volume on day 1: 374 mL
  Urinary volume on day 14: 532 mL
Healthy dogs; [8]
  Urinary volume on day 1: 620 mL
  Urinary volume on day 14: 1033 mL

— patent publication US12048677B2, “Compositions and uses thereof for the treatment of heart failure in domestic animals” (CEVA SANTE ANIMALE, priority 2014, dated 2024)
